# From US4728509A, “Aqueous liquid preparation” (Takeda Chemical Industries, Ltd., priority 1985, dated 1988)
# Read-outs that look alike come from different tables or passages of the source.
# Assays:
# [1] = Solubility of compound (a); type: physicochemical
# [2] = Stability test of compound (a) in solution, remaining ratio at 60° C. (Experimental Example 2); type: physicochemical; conditions: phosphate buffer, pH 7.5±0.1; for remaining at 1344 h: 60° C. after 8 weeks
# Description: The stability of the compound (a) was tested by the following manner.
# At first, the stability of the compound (a) without any adjuvant was tested for comparison.
# Two samples were prepared by dissolving 100 mg and 250 mg each portion of the compound (a) in phosphate buffer. To each of the solutions was added a solution of sodium hydroxide to adjust the pH to 7.5±0.1, followed by addition of purified water to make the whole volume 100 ml, provided that the solution of 2.5 mg/ml was prepared at 40° C. Each solution was filled in a glass bottle, which was stored at 60° C. for evaluation of the stability.
# The results were shown in Table 2 as remaining ratio (%).
# Next, the effect of improving the stability of the compound (a), when a solubilizer of this invention was added to the solution containing the compound (a), was examined.
# To each sample was added a given amount of a solubilizer as specified in the table, followed by working up in a similar manner to the above (pH 7.5±0.1) for evaluation of the stability.
# The results were shown in Table 3 as remaining ratio (%).
# [3] = Solubility test of compound (a) with and without solubilizers (Experimental Example 1; HPLC of filtrate); conditions: phosphate buffer, Solubility of Compound (a), 48 hours
# Description: Solubility tests of the compound (a) (2-amino-7-isopropyl-5-oxo-5H-[1]-benzopyrano[2,3-b]pyridine-3-carboxylic acid) employing the solubilizers of this invention and, for comparison, employing various conventional solubilizers were performed.
# The solubility was measured by the following manner:
# An excess amount of the compound (a) was added to a given volume of a phosphate buffer, the mixture was sufficiently stirred, then the pH was adjusted to a given level, the mixture was allowed to stand at room temperature (25° C.) for 48 hours, the resultant was subjected to filtration with 0.45μ membrane filter, followed by measuring the concentration of the compound (a) in the filtrate by means of high performance liquid chromatography.
compound,measurement,setting,value
"CC(C)c1ccc2oc3nc(N)c(C(=O)O)cc3c(=O)c2c1 [Compound (a), 2-amino-7-isopropyl-5-oxo-5H-[1]-benzopyrano[2,3-b]pyridine-3-carboxylic acid]",amount of compound (a) dissolved by the aqueous liquid preparation of this invention,"[1]; aqueous liquid preparation of this invention, pH 7.2-7.8",≥ 3 mg/mL
same,solubility,"[1]; neutral to alkaline region (pH 7.2-7.8), read-out: solubility",~1100 µg/mL
same,solubility,"[1]; water, 25° C., read-out: solubility in water",~10 µg/mL
same,solubility,"[1]; water, pH 7.5, cold chamber (5° C.), read-out: solubility in water",300 µg/mL
same,remaining at 168 h,"[2]; pH 7.5, compound (a) 1.0 mg/ml, PVP (MW 40,000) 20 mg/ml, 60° C. after 1 week",99.5%
same,remaining at 336 h,"[2]; pH 7.5, compound (a) 1.0 mg/ml, PVP (MW 40,000) 20 mg/ml, 60° C. after 2 weeks",99.2%
same,remaining at 672 h,"[2]; pH 7.5, compound (a) 1.0 mg/ml, PVP (MW 40,000) 20 mg/ml, 60° C. after 4 weeks",98.4%
same,remaining at 1344 h,"[2]; pH 7.5, compound (a) 1.0 mg/ml, PVP (MW 40,000) 20 mg/ml",98.1%
same,remaining at 168 h,"[2]; pH 7.5, compound (a) 2.5 mg/ml, PVP (MW 40,000) 50 mg/ml, 60° C. after 1 week",98.9%
same,remaining at 336 h,"[2]; pH 7.5, compound (a) 2.5 mg/ml, PVP (MW 40,000) 50 mg/ml, 60° C. after 2 weeks",99.5%
same,remaining at 672 h,"[2]; pH 7.5, compound (a) 2.5 mg/ml, PVP (MW 40,000) 50 mg/ml, 60° C. after 4 weeks",99.1%
same,remaining at 1344 h,"[2]; pH 7.5, compound (a) 2.5 mg/ml, PVP (MW 40,000) 50 mg/ml",97%
same,remaining at 168 h,"[2]; pH 7.5, compound (a) 5.0 mg/ml, PVP (MW 40,000) 10 mg/ml + caffeine 10 mg/ml, 60° C. after 1 week",98.9%
same,remaining at 336 h,"[2]; pH 7.5, compound (a) 5.0 mg/ml, PVP (MW 40,000) 10 mg/ml + caffeine 10 mg/ml, 60° C. after 2 weeks",99.5%
same,remaining at 672 h,"[2]; pH 7.5, compound (a) 5.0 mg/ml, PVP (MW 40,000) 10 mg/ml + caffeine 10 mg/ml, 60° C. after 4 weeks",98.1%
same,remaining at 1344 h,"[2]; pH 7.5, compound (a) 5.0 mg/ml, PVP (MW 40,000) 10 mg/ml + caffeine 10 mg/ml",98.2%
same,remaining at 168 h,"[2]; pH 7.5, compound (a) 10.0 mg/ml, PVP (MW 40,000) 50 mg/ml + β-CD 10 mg/ml, 60° C. after 1 week",98.7%
same,remaining at 336 h,"[2]; pH 7.5, compound (a) 10.0 mg/ml, PVP (MW 40,000) 50 mg/ml + β-CD 10 mg/ml, 60° C. after 2 weeks",100%
same,remaining at 672 h,"[2]; pH 7.5, compound (a) 10.0 mg/ml, PVP (MW 40,000) 50 mg/ml + β-CD 10 mg/ml, 60° C. after 4 weeks",98.3%
same,remaining at 1344 h,"[2]; pH 7.5, compound (a) 10.0 mg/ml, PVP (MW 40,000) 50 mg/ml + β-CD 10 mg/ml",97.3%
same,remaining at 672 h,"[2]; pH 7.5, no adjuvant, compound (a) 1.0 mg/ml, 60° C. after four weeks",85.4%
same,remaining at 168 h,"[2]; pH 7.5, no adjuvant, compound (a) 1.0 mg/ml, 60° C. after one week",99.2%
same,remaining at 336 h,"[2]; pH 7.5, no adjuvant, compound (a) 1.0 mg/ml, 60° C. after two weeks",97.2%
same,remaining at 672 h,"[2]; pH 7.5, no adjuvant, compound (a) 2.5 mg/ml, 60° C. after four weeks",66.8%
same,remaining at 168 h,"[2]; pH 7.5, no adjuvant, compound (a) 2.5 mg/ml, 60° C. after one week",92.1%
same,remaining at 336 h,"[2]; pH 7.5, no adjuvant, compound (a) 2.5 mg/ml, 60° C. after two weeks",80.5%
same,solubility at 48 h,"[3]; pH 6, aqueous buffer, Caffeine 5 mg/ml, pH 6.0, 25° C.",660 µg/mL
same,solubility at 48 h,"[3]; pH 6, aqueous buffer, Caffeine 10 mg/ml, pH 6.0, 25° C.",1650 µg/mL
same,solubility at 48 h,"[3]; pH 6, aqueous buffer, Control, no solubilizer, pH 6.0, 25° C.",20 µg/mL
same,solubility at 48 h,"[3]; pH 6, aqueous buffer, Polyvinylpyrrolidone (average molecular weight 40000) 10 mg/ml, pH 6.0, 25° C.",120 µg/mL
same,solubility at 48 h,"[3]; pH 6, aqueous buffer, Polyvinylpyrrolidone (average molecular weight 40000) 50 mg/ml, pH 6.0, 25° C.",320 µg/mL
same,solubility at 48 h,"[3]; pH 6, aqueous buffer, Polyvinylpyrrolidone (average molecular weight 40000) 100 mg/ml, pH 6.0, 25° C.",1590 µg/mL
same,solubility at 48 h,"[3]; pH 6, aqueous buffer, Sodium benzoate 20 mg/ml, pH 6.0, 25° C.",40 µg/mL
same,solubility at 48 h,"[3]; pH 6, aqueous buffer, Tween 80 10 mg/ml, pH 6.0, 25° C.",80 µg/mL
same,solubility at 48 h,"[3]; pH 6, aqueous buffer, β-Cyclodextrin 10 mg/ml, pH 6.0, 25° C.",720 µg/mL
same,solubility at 48 h,"[3]; pH 6.5, aqueous buffer, Caffeine 5 mg/ml, pH 6.5, 25° C.",1500 µg/mL
same,solubility at 48 h,"[3]; pH 6.5, aqueous buffer, Caffeine 10 mg/ml, pH 6.5, 25° C.",2670 µg/mL
same,solubility at 48 h,"[3]; pH 6.5, aqueous buffer, Control, no solubilizer, pH 6.5, 25° C.",80 µg/mL
same,solubility at 48 h,"[3]; pH 6.5, aqueous buffer, Isoniazid 10 mg/ml, pH 6.5, 25° C.",850 µg/mL
same,solubility at 48 h,"[3]; pH 6.5, aqueous buffer, Nicotinic acid amide 10 mg/ml, pH 6.5, 25° C.",820 µg/mL
same,solubility at 48 h,"[3]; pH 6.5, aqueous buffer, Polyvinylpyrrolidone (average molecular weight 40000) 10 mg/ml, pH 6.5, 25° C.",420 µg/mL
same,solubility at 48 h,"[3]; pH 6.5, aqueous buffer, Polyvinylpyrrolidone (average molecular weight 40000) 50 mg/ml, pH 6.5, 25° C.",1230 µg/mL
same,solubility at 48 h,"[3]; pH 6.5, aqueous buffer, Polyvinylpyrrolidone (average molecular weight 40000) 100 mg/ml, pH 6.5, 25° C.",4630 µg/mL
same,solubility at 48 h,"[3]; pH 6.5, aqueous buffer, Sodium benzoate 20 mg/ml, pH 6.5, 25° C.",290 µg/mL
same,solubility at 48 h,"[3]; pH 6.5, aqueous buffer, Tween 80 10 mg/ml, pH 6.5, 25° C.",470 µg/mL
same,solubility at 48 h,"[3]; pH 6.5, aqueous buffer, β-Cyclodextrin 10 mg/ml, pH 6.5, 25° C.",1400 µg/mL
same,solubility at 48 h,"[3]; pH 7, aqueous buffer, Caffeine 5 mg/ml, pH 7.0, 25° C.",3720 µg/mL
same,solubility at 48 h,"[3]; pH 7, aqueous buffer, Caffeine 10 mg/ml, pH 7.0, 25° C.",7050 µg/mL
same,solubility at 48 h,"[3]; pH 7, aqueous buffer, Control, no solubilizer, pH 7.0, 25° C.",330 µg/mL
same,solubility at 48 h,"[3]; pH 7, aqueous buffer, Isoniazid 10 mg/ml, pH 7.0, 25° C.",1330 µg/mL
same,solubility at 48 h,"[3]; pH 7, aqueous buffer, Nicotinic acid amide 10 mg/ml, pH 7.0, 25° C.",1210 µg/mL
same,solubility at 48 h,"[3]; pH 7, aqueous buffer, Polyvinylpyrrolidone (average molecular weight 40000) 10 mg/ml, pH 7.0, 25° C.",1060 µg/mL
same,solubility at 48 h,"[3]; pH 7, aqueous buffer, Polyvinylpyrrolidone (average molecular weight 40000) 50 mg/ml, pH 7.0, 25° C.",3230 µg/mL
same,solubility at 48 h,"[3]; pH 7, aqueous buffer, Polyvinylpyrrolidone (average molecular weight 40000) 100 mg/ml, pH 7.0, 25° C.",10000 µg/mL
same,solubility at 48 h,"[3]; pH 7, aqueous buffer, Sodium benzoate 20 mg/ml, pH 7.0, 25° C.",420 µg/mL
same,solubility at 48 h,"[3]; pH 7, aqueous buffer, β-Cyclodextrin 10 mg/ml, pH 7.0, 25° C.",2300 µg/mL
same,solubility at 48 h,"[3]; pH 7.5, aqueous buffer, Caffeine 5 mg/ml, pH 7.5, 25° C.",7440 µg/mL
same,solubility at 48 h,"[3]; pH 7.5, aqueous buffer, Caffeine 10 mg/ml, pH 7.5, 25° C.",9210 µg/mL
same,solubility at 48 h,"[3]; pH 7.5, aqueous buffer, Control, no solubilizer, pH 7.5, 25° C.",1050 µg/mL
same,solubility at 48 h,"[3]; pH 7.5, aqueous buffer, Isoniazid 10 mg/ml, pH 7.5, 25° C.",1560 µg/mL
same,solubility at 48 h,"[3]; pH 7.5, aqueous buffer, Nicotinic acid amide 10 mg/ml, pH 7.5, 25° C.",1530 µg/mL
same,solubility at 48 h,"[3]; pH 7.5, aqueous buffer, Polyvinylpyrrolidone (average molecular weight 40000) 10 mg/ml, pH 7.5, 25° C.",3150 µg/mL
same,solubility at 48 h,"[3]; pH 7.5, aqueous buffer, Polyvinylpyrrolidone (average molecular weight 40000) 50 mg/ml, pH 7.5, 25° C.",10400 µg/mL
same,solubility at 48 h,"[3]; pH 7.5, aqueous buffer, Polyvinylpyrrolidone (average molecular weight 40000) 100 mg/ml, pH 7.5, 25° C.",18500 µg/mL
same,solubility at 48 h,"[3]; pH 7.5, aqueous buffer, Sodium benzoate 20 mg/ml, pH 7.5, 25° C.",1060 µg/mL
same,solubility at 48 h,"[3]; pH 7.5, aqueous buffer, Tween 80 10 mg/ml, pH 7.5, 25° C.",1180 µg/mL
same,solubility at 48 h,"[3]; pH 7.5, aqueous buffer, β-Cyclodextrin 10 mg/ml, pH 7.5, 25° C.",4390 µg/mL
